Source: the supplement of paper PMC10307832

Experiments:
Assay in all cases: relative viability (nuclei count vs DMSO), 5 days (fraction); higher = more cells survive
[1] = compound: CN(C)C(=N)NC(=N)N [Metformin] + CCNC(=O)c1noc(-c2cc(C(C)C)c(O)cc2O)c1-c1ccc(CN2CCOCC2)cc1 [Luminespib] (partner 0.01 µM)
Summary of the method: (§1)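 Relative viability was taken as the ratio of nuclei in treated wells to nuclei in vehicle wells. Lung cancer cell lines in 1536-well plates received compounds by pin tool one day after seeding, either one drug alone or a fixed anchor-drug dose plus five library-drug doses (not always all listed) in √10 steps. Nuclei were counted on 4× images after 5 days of treatment, and values are medians of duplicate plates.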

[2] = compound: CN(C)C(=N)NC(=N)N [Metformin] + O=C(c1cc(Cc2n[nH]c(=O)c3ccccc23)ccc1F)N1CCN(C(=O)C2CC2)CC1 [Olaparib] (partner 8 µM)
Summary of the method: as §1

[3] = compound: N#CC1(c2ccc(NC(=O)c3cccnc3NCc3ccncc3)cc2)CCCC1 [Apatinib] + CS(=O)(=O)N1CCN(Cc2cc3nc(-c4cccc5[nH]ncc45)nc(N4CCOCC4)c3s2)CC1 [Pictilisib] (partner 1 µM)
Summary of the method: as §1

[4] = compound: N#CC1(c2ccc(NC(=O)c3cccnc3NCc3ccncc3)cc2)CCCC1 [Apatinib] + NC(=O)Nc1cc(-c2cccc(F)c2)sc1C(=O)N[C@H]1CCCNC1 [AZD7762] (partner 0.2 µM)
Summary of the method: as §1

Cell Line	relative viability ([1]; first compound 10 µM)	relative viability ([1]; first compound 31.62 µM)	relative viability ([1]; first compound 100 µM)	relative viability ([1]; first compound 316.23 µM)	relative viability ([1]; first compound 1000 µM)	relative viability ([2]; first compound 31.62 µM)	relative viability ([2]; first compound 100 µM)	relative viability ([2]; first compound 316.23 µM)	relative viability ([2]; first compound 1000 µM)	relative viability ([3]; first compound 0.08 µM)	relative viability ([3]; first compound 0.253 µM)	relative viability ([3]; first compound 0.8 µM)	relative viability ([3]; first compound 2.53 µM)	relative viability ([3]; first compound 8 µM)	relative viability ([4]; first compound 0.08 µM)	relative viability ([4]; first compound 0.253 µM)	relative viability ([4]; first compound 0.8 µM)	relative viability ([4]; first compound 2.53 µM)	relative viability ([4]; first compound 8 µM)	relative viability ([2]; first compound 10 µM)
LCLC-97TM1	0.75	0.861	0.922	0.7	0.76	0.321	0.394	0.249	0.414	0.221	0.147	0.216	0.316	0.143	0.233	0.263	0.204	0.19	0.311	–
NCI-H650	0.953	1.03	1.06	0.92	1.09	0.296	0.396	0.316	0.368	0.963	0.878	0.847	0.678	0.654	0.906	1.05	1.12	0.743	0.694	0.315
NCI-H1915	–	0.724	0.835	0.785	0.795	0.24	0.228	0.222	0.244	1.12	0.91	0.943	0.878	0.752	0.733	0.685	0.648	0.567	0.505	–
NCI-H3122	0.076	0.0878	0.0846	0.0862	0.113	0.555	0.587	0.54	0.507	0.679	0.538	0.684	0.731	0.701	0.983	0.988	1.02	0.946	0.933	0.442
LOU-NH91	0.343	0.404	0.316	0.344	0.376	0.894	0.865	0.883	0.845	0.516	0.56	0.499	0.466	0.522	0.749	0.724	0.75	0.677	0.701	0.859
NCI-H2087	–	0.293	0.225	0.223	0.157	0.453	0.414	0.426	0.473	0.864	0.815	0.826	0.749	0.779	1.25	1.25	1.32	1.05	1.05	0.316
LK-2	0.203	0.17	0.196	0.2	0.191	0.509	0.644	0.734	0.873	0.532	0.511	0.484	0.326	0.428	0.262	0.468	0.302	0.155	0.248	0.79
NCI-H2347	0.328	1.03	–	0.537	0.791	0.506	0.376	0.465	0.512	0.51	0.673	0.748	0.552	0.596	0.716	0.791	0.823	0.654	0.556	0.585
NCI-H1437	1.15	1.16	1.19	1.08	1.12	0.59	0.593	0.595	0.576	0.468	0.441	0.377	0.392	0.284	1.07	1.12	1.02	1.04	0.812	0.579
ABC-1	0.481	0.694	0.883	0.306	0.371	0.817	1.08	0.218	0.36	–	1.01	0.637	0.752	0.552	–	0.687	0.882	0.767	0.727	–
NCI-H1755	0.504	0.565	0.475	0.419	0.418	0.774	0.79	0.716	0.829	0.443	0.416	0.447	0.461	0.376	0.442	0.449	0.366	0.375	0.335	0.735
NCI-H2405	0.585	0.581	0.774	0.664	0.737	0.905	0.813	0.635	0.506	0.343	0.458	0.439	0.402	0.35	0.773	0.859	0.713	0.55	0.609	–
NCI-H1993	0.994	1.09	0.713	0.856	0.934	1.02	1.12	0.882	0.955	0.874	0.828	0.803	0.731	0.817	0.869	0.7	0.648	0.576	0.638	1.01
NCI-H322M	0.831	0.884	1.05	0.912	0.826	0.695	0.739	0.672	0.654	0.513	0.488	0.523	0.627	0.528	0.553	0.58	0.549	0.471	0.471	0.686
NCI-H522	1.4	1.27	1.65	1.54	1.33	0.752	0.745	0.652	0.698	–	–	–	–	–	0.884	1	0.867	0.623	0.794	0.721
NCI-H2342	0.687	0.706	0.726	0.731	0.71	0.375	0.372	0.418	0.358	–	–	–	–	–	0.454	0.464	0.536	0.385	0.353	–
HCC-366	–	–	–	–	–	0.21	0.213	0.203	0.213	0.22	0.184	0.183	0.129	0.111	0.283	0.457	0.135	0.128	0.0774	0.255
